Laboratory results reported in US20260240163A1, “HERBICIDAL COMBINATIONS AND A METHOD FOR CONTROLLING UNDESIRED VEGETATION” (UPL Mauritius Limited, priority 2022, published 2026).

Tested on: Euphorbia heterophylla
Assay: Post-emergence herbicidal efficacy trials; expected efficacy by Colby method
Format: in vivo
Details: for Observed efficacy (%) of L-glufosinate ammonium (150 g a.i./ha): Table 11
Procedure: Methodology: Trials were conducted to evaluate the efficacy of the combinations comprising L-glufosinate ammonium and the additional herbicides on Euphorbia genus weeds.
The soil used was sandy clay loam-sand: 68.0%; silt: 8.0%; clay: 24.0%.
All treatments were in 4 replications per treatment with a spray volume of about 150 L/ha.
Efficacy Evaluation: The expected efficacy of the combination comprising L-glufosinate ammonium and additional herbicides was calculated using the well-established Colby method.
In the Colby method, the expected (or predicted) response of a combination of herbicides is calculated by taking the product of the observed response for each individual component of the combination when applied alone, divided by 100, and subtracting this value from the sum of the observed response for each component when applied alone. An unexpected enhancement in efficacy of the combination is then determined by comparing the observed response of the combination to the expected (or predicted) response as calculated from the observed response of each individual component alone. If the observed response of the combination is greater than the expected (or predicted) response, or stated conversely, if the difference between the observed and expected response is greater than zero, then the combination is said to be synergistic or unexpectedly effective (Colby, S. R., Weeds, 1967 (15), p. 20-22). The Colby method requires only a single dose of each herbicide applied alone and the mixture of both doses. The formula used to calculate the expected efficacy (EE) which was compared with the observed efficacy (OE) to determine the efficacy of the present disclosure is explained hereinbelow:
The expected efficacy for a combination of two active ingredients is as follows:
wherein, • A=Observed efficacy of active ingredient A at the same concentration as used in the mixture. • B=Observed efficacy of the active ingredient B at the same concentration as used in the mixture.

`C[N+](C)(C)CCO.O=C([O-])COc1ccc(Cl)cc1Cl` [2,4-D choline, 2,4-dichlorophenoxyacetic acid (2,4-D) choline] was tested, and the “Observed efficacy (%) of 2,4-D choline (228 g a.i./ha)” value (14 DAA) was 30% and the “Observed efficacy (%) of 2,4-D choline (228 g a.i./ha)” value (21 DAA) was 30%.
For `COc1c(Cl)ccc(-c2nc(C(=O)OCc3ccccc3)c(Cl)c(N)c2F)c1F` [Florpyrauxifen-benzyl], the “Observed efficacy (%) of Florpyrauxifen-benzyl (15 g a.i./ha)” value (7 DAA) was 65% and the “Observed efficacy (%) of Florpyrauxifen-benzyl (15 g a.i./ha)” value (14 DAA) was 90%.
`CP(=O)(O)CC[C@H](N)C(=O)O.N` [L-glufosinate ammonium] was tested, and the “Observed efficacy (%) of L-glufosinate ammonium (Glufosinate-P-ammonium) (150 g a.i./ha)” value (7 DAA, Table 6) was 95%, the “Observed efficacy (%) of L-glufosinate ammonium (Glufosinate-P-ammonium) (150 g a.i./ha)” value (7 DAA, Table 7) was 95% and the “Observed efficacy (%) of L-glufosinate ammonium (Glufosinate-P-ammonium) (150 g a.i./ha)” value (7 DAA, Table 8) was 95%. The “Observed efficacy (%) of L-glufosinate ammonium (Glufosinate-P-ammonium) (150 g a.i./ha)” value (7 DAA, Table 9) was 95%, the “Observed efficacy (%) of L-glufosinate ammonium (Glufosinate-P-ammonium) (150 g a.i./ha)” value (7 DAA, Table 10) was 95% and the “Observed efficacy (%) of L-glufosinate ammonium (Glufosinate-P-ammonium) (150 g a.i./ha)” value (14 DAA, Table 6) was 98%. The “Observed efficacy (%) of L-glufosinate ammonium (Glufosinate-P-ammonium) (150 g a.i./ha)” value (14 DAA, Table 7) was 98%, the “Observed efficacy (%) of L-glufosinate ammonium (Glufosinate-P-ammonium) (150 g a.i./ha)” value (14 DAA, Table 9) was 93.5% and the “Observed efficacy (%) of L-glufosinate ammonium (Glufosinate-P-ammonium) (150 g a.i./ha)” value (14 DAA, Table 10) was 93.5%. The “Observed efficacy (%) of L-glufosinate ammonium (150 g a.i./ha)” value (14 DAA) was 98%, the “Observed efficacy (%) of L-glufosinate ammonium (Glufosinate-P-ammonium) (150 g a.i./ha)” value (21 DAA, Table 9) was 88.8% and the “Observed efficacy (%) of L-glufosinate ammonium (Glufosinate-P-ammonium) (150 g a.i./ha)” value (21 DAA, Table 10) was 88.8%. The “Observed efficacy (%) of L-glufosinate ammonium (150 g a.i./ha)” value (21 DAA) was 98%, the “Observed efficacy (%) of L-glufosinate ammonium (Glufosinate-P-ammonium) (150 g a.i./ha)” value (28 DAA, Table 9) was 93.1% and the “Observed efficacy (%) of L-glufosinate ammonium (Glufosinate-P-ammonium) (150 g a.i./ha)” value (28 DAA, Table 10) was 93.1%.
`CCOc1cc(Oc2ccc(C(F)(F)F)cc2Cl)ccc1[N+](=O)[O-]` [Oxyfluorfen] was tested, and the “Observed efficacy (%) of Oxyfluorfen (430 g a.i./ha)” value (430 g a.i./ha, 7 DAA) was 75%.
With `CCN(CC)C(=O)C(C)Oc1cccc2ccccc12` (stereo not drawn) [Napropamide] the “Observed efficacy (%) of Napropamide (675 g a.i./ha)” value (“Observed efficacy (%) of Napropamide” for short) (7 DAA) was 20%, the “Observed efficacy (%) of Napropamide” value (14 DAA) was 10% and the “Observed efficacy (%) of Napropamide” value (21 DAA) was 0%. For the same molecule, the “Observed efficacy (%) of Napropamide” value (28 DAA) was 0%.
With `COc1c(Cl)ccc(Cl)c1C(=O)O` [Dicamba] the “Observed efficacy (%) of Dicamba (228 g a.i./ha)” value (7 DAA) was 45% and the “Observed efficacy (%) of Dicamba (228 g a.i./ha)” value (14 DAA) was 40%.
For `CSc1nnc(C(C)(C)C)c(=O)n1N` [Metribuzin], the “Observed efficacy (%) of Metribuzin (360 g a.i./ha)” value (“Observed efficacy (%) of Metribuzin” below) (7 DAA) was 41.9%, the “Observed efficacy (%) of Metribuzin” value (14 DAA) was 38.1% and the “Observed efficacy (%) of Metribuzin” value (21 DAA) was 29.4%. The “Observed efficacy (%) of Metribuzin” value (28 DAA) was 12.5%.
